Source: ChEMBL document CHEMBL1649227, “In vitro antiviral activity of V-073 against polioviruses” (Antimicrob Agents Chemother, 2009)
≈ marks a conversion by molar mass, not a printed value.

Legend:
[1] = tested on: Enterovirus C; test: Antiviral activity against Poliovirus 10238 serotype PV1 obtained from circulating vaccine infected in […] LLC-MK2 cells assessed as inhibition of viral-replication induced cytopathic effect; assay type: functional, organism-based; details: 10238 serotype PV1, LLC-MK2
[2] = tested on: Enterovirus C; test: Antiviral activity against Poliovirus P712 serotype PV2 vaccine-derived infected in […] LLC-MK2 cells assessed as inhibition of viral-replication induced cytopathic effect; assay type: functional, organism-based
[3] = tested on: Enterovirus C; test: Antiviral activity against Poliovirus 10241 serotype PV1 obtained from circulating vaccine infected in […] LLC-MK2 cells assessed as inhibition of viral-replication induced cytopathic effect; assay type: functional, organism-based; details: 10241 serotype PV1, LLC-MK2
[4] = tested on: Enterovirus C; test: Antiviral activity against Poliovirus 10229 serotype PV2 obtained from circulating vaccine infected in […] LLC-MK2 cells assessed as inhibition of viral-replication induced cytopathic effect; assay type: functional, organism-based; details: 10229 serotype PV2, LLC-MK2
[5] = tested on: Enterovirus C; test: Antiviral activity against Poliovirus 10239 serotype PV1 obtained from circulating vaccine infected in […] LLC-MK2 cells assessed as inhibition of viral-replication induced cytopathic effect; assay type: functional, organism-based; details: 10239 serotype PV1, LLC-MK2
[6] = tested on: Coxsackievirus A9; test: Antiviral activity against Coxsackievirus serotype A9 infected in african green monkey BGMK cells assessed as inhibition of virus induced cytopathic effect after 18 to 24 hrs; assay type: functional, organism-based; details: Enterovirus B
[7] = tested on: Enterovirus C; test: Antiviral activity against Poliovirus 10235 serotype PV1 obtained from circulating vaccine infected in […] LLC-MK2 cells assessed as inhibition of viral-replication induced cytopathic effect; assay type: functional, organism-based; details: 10235 serotype PV1, LLC-MK2
[8] = tested on: Enterovirus C; test: Antiviral activity against Poliovirus 10234 serotype PV2 obtained from circulating vaccine infected in […] LLC-MK2 cells assessed as inhibition of viral-replication induced cytopathic effect; assay type: functional, organism-based; details: 10234 serotype PV2, LLC-MK2
[9] = tested on: Enterovirus C; test: Antiviral activity against Poliovirus Lansing serotype PV2 infected in […] LLC-MK2 cells assessed as inhibition of viral-replication induced cytopathic effect; assay type: functional, organism-based
[10] = tested on: Enterovirus C; test: Antiviral activity against Poliovirus 10243 serotype PV2 obtained from immunodeficient chronic excretor infected in […] LLC-MK2 cells assessed as inhibition of viral-replication induced cytopathic effect; assay type: functional, organism-based; details: 10243 serotype PV2, LLC-MK2
[11] = tested on: Enterovirus C; test: Antiviral activity against Poliovirus 10223 serotype PV1 obtained from immunodeficient chronic excretor infected in […] LLC-MK2 cells assessed as inhibition of viral-replication induced cytopathic effect; assay type: functional, organism-based; details: 10223 serotype PV1, LLC-MK2
[12] = tested on: Enterovirus C; test: Antiviral activity against Poliovirus 10240 serotype PV1 obtained from circulating vaccine infected in […] LLC-MK2 cells assessed as inhibition of viral-replication induced cytopathic effect; assay type: functional, organism-based; details: 10240 serotype PV1, LLC-MK2
[13] = tested on: Enterovirus C; test: Antiviral activity against Poliovirus 10691 serotype PV1 obtained from circulating vaccine infected in […] LLC-MK2 cells assessed as inhibition of viral-replication induced cytopathic effect; assay type: functional, organism-based; details: 10691 serotype PV1, LLC-MK2
[14] = tested on: Enterovirus C; test: Antiviral activity against Poliovirus PV1-LSc/2ab serotype PV1 vaccine-derived infected in […] LLC-MK2 cells assessed as inhibition of viral-replication induced cytopathic effect; assay type: functional, organism-based; details: PV1-LSc/2ab serotype PV1, LLC-MK2
[15] = tested on: Enterovirus C; test: Antiviral activity against Poliovirus 10693 serotype PV1 obtained from circulating vaccine infected in […] LLC-MK2 cells assessed as inhibition of viral-replication induced cytopathic effect; assay type: functional, organism-based; details: 10693 serotype PV1, LLC-MK2
[16] = tested on: Enterovirus C; test: Antiviral activity against Poliovirus 10227 serotype PV2 obtained from immunodeficient chronic excretor infected in […] LLC-MK2 cells assessed as inhibition of viral-replication induced cytopathic effect; assay type: functional, organism-based; details: 10227 serotype PV2, LLC-MK2
[17] = Selectivity index, ratio of CC50 for human HeLa cells to EC50 for poliovirus; assay type: toxicity, cell-based; details: read-out: Ratio CC50/EC50
[18] = tested on: Enterovirus C; test: Antiviral activity against Poliovirus 10805 serotype PV3 infected in […] LLC-MK2 cells assessed as inhibition of viral-replication induced cytopathic effect; assay type: functional, organism-based; details: 10805 serotype PV3, LLC-MK2
[19] = tested on: Enterovirus C; test: Antiviral activity against Poliovirus 10219 serotype PV2 obtained from circulating vaccine infected in […] LLC-MK2 cells assessed as inhibition of viral-replication induced cytopathic effect; assay type: functional, organism-based; details: 10219 serotype PV2, LLC-MK2
[20] = tested on: Enterovirus C; test: Antiviral activity against Poliovirus 10236 serotype PV1 obtained from circulating vaccine infected in […] LLC-MK2 cells assessed as inhibition of viral-replication induced cytopathic effect; assay type: functional, organism-based; details: 10236 serotype PV1, LLC-MK2
[21] = tested on: Enterovirus A71; test: Antiviral activity against Enterovirus serotype 71 infected in african green monkey BGMK cells assessed as inhibition of virus induced cytopathic effect after 18 to 24 hrs; assay type: functional, organism-based; details: Enterovirus A
[22] = tested on: Enterovirus C; test: Antiviral activity against Poliovirus 10233 serotype PV2 obtained from circulating vaccine infected in […] LLC-MK2 cells assessed as inhibition of viral-replication induced cytopathic effect; assay type: functional, organism-based; details: 10233 serotype PV2, LLC-MK2
[23] = tested on: Enterovirus C; test: Antiviral activity against Poliovirus 10668 serotype PV1 obtained from immunodeficient chronic excretor infected in […] LLC-MK2 cells assessed as inhibition of viral-replication induced cytopathic effect; assay type: functional, organism-based; details: 10668 serotype PV1, LLC-MK2
[24] = tested on: Enterovirus C; test: Antiviral activity against Poliovirus 10689 serotype PV1 obtained from immunodeficient chronic excretor infected in […] LLC-MK2 cells assessed as inhibition of viral-replication induced cytopathic effect; assay type: functional, organism-based; details: 10689 serotype PV1, LLC-MK2
[25] = tested on: Coxsackievirus B5; test: Antiviral activity against Coxsackievirus serotype B5 infected in african green monkey BGMK cells assessed as inhibition of virus induced cytopathic effect after 18 to 24 hrs; assay type: functional, organism-based; details: Enterovirus B
[26] = tested on: Enterovirus C; test: Antiviral activity against Poliovirus 10230 serotype PV2 obtained from circulating vaccine infected in […] LLC-MK2 cells assessed as inhibition of viral-replication induced cytopathic effect; assay type: functional, organism-based; details: 10230 serotype PV2, LLC-MK2
[27] = tested on: Enterovirus C; test: Antiviral activity against Poliovirus 10237 serotype PV1 obtained from circulating vaccine infected in […] LLC-MK2 cells assessed as inhibition of viral-replication induced cytopathic effect; assay type: functional, organism-based; details: 10237 serotype PV1, LLC-MK2
[28] = Cytotoxicity against african green monkey BGMK cells after 18 to 24 hrs by MTT assay; assay type: cell-based; details: chlorocebus aethiops
[29] = tested on: Enterovirus C; test: Antiviral activity against Poliovirus Mahoney serotype PV1 infected in […] LLC-MK2 cells assessed as inhibition of viral-replication induced cytopathic effect; assay type: functional, organism-based
[30] = tested on: Enterovirus C; test: Antiviral activity against Poliovirus 10690 serotype PV1 obtained from circulating vaccine infected in […] LLC-MK2 cells assessed as inhibition of viral-replication induced cytopathic effect; assay type: functional, organism-based; details: 10690 serotype PV1, LLC-MK2

For `COc1ccc(OCc2ccc(COc3c(Cl)cccc3Cl)cc2)c(Cl)c1`, the EC50 [1] was 14 nM, the EC50 [2] was 3 nM and the EC50 [3] was 83 nM. The EC50 [4] was 20 nM, the EC50 [5] was 14 nM and the EC50 [6] was 3.79 µM. For the same molecule, the EC50 [7] was 18 nM, the EC50 [8] was 9 nM and the EC50 [9] was 7 nM. For the same molecule, the EC50 [10] was 38 nM, the EC50 [11] was 10 nM and the EC50 [12] was 15 nM. The EC50 [13] was 18 nM, the EC50 [14] was 17 nM and the EC50 [15] was 8 nM. For the same molecule, the EC50 [16] was 19 nM, the selectivity ratio [17] was 75 and the EC50 [18] was 29 nM. For the same molecule, the EC50 [19] was 23 nM, the EC50 [20] was 29 nM and the MIC90 [21] was 1.42 µM (≈ 0.602 µg/mL). The EC50 ([21]; BGMK) was 3.47 µM, the EC50 [22] was 24 nM and the EC50 [23] was 21 nM. The EC50 [24] was 42 nM, the EC50 [25] was 3.79 µM and the EC50 [26] was 36 nM. For the same molecule, the EC50 [27] was 11 nM, the Activity [28] was > 50 µg/mL and the EC50 [29] was 76 nM. For the same molecule, the EC50 [30] was 29 nM.
